Legend:
[1] = system: Myzus persicas resistant to organic phosphorous agents and carbamate agents; assay: Test for Myzus persicas resistant to organic phosphorous agents and carbamate agents; type: in vivo; conditions: effective component concentration of 500 ppm; spray on egg plant; 24 hours after spraying
Description: (§1) In order to obtain a preparation of a proper active compound, 1 part by weight of an active compound was mixed with the stated amounts of solvent and emulsifier and the mixture was diluted to a specified concentration with water.
About 200 head per plantlet of cultivated Myzus persicas resistant to phosphorous agents and carbamate agents were inoculated on an egg plant. The aqueous dilution containing the above prepared active compound having a specified concentration was sprayed on the egg plant in a sufficient amount by a spray gun one day after the inoculation. The egg plant was allowed to stand in a 28° C. green house, to calculate the insecticidal ratio 24 hours after the solution was sprayed. In this case, the test was made twice repeatedly.

[2] = system: Spodoptera litura larvae; assay: Test for Spodoptera litura larvae (leaf dip); type: in vivo; conditions: effective component concentration of 500 ppm, 3rd-instar larvae on dipped sweet potato leaves, after 7 days; for pest or weed control at 500 ppm: foliar, 168 h, read-out: insecticidal ratio
Description: as §1
The leaves of sweat potatoes were dipped in the test solution diluted to a specified concentration with water. After these leaves were dried in air to remove the chemical solution, they were placed in a Petri dish of 9 cm in diameter, in which 10 Spodoptera litura larvae of the 3rd-instar were set free. The Petri dish was placed in a thermostatic chamber kept at 25° C. and the leaves of sweat potatoes were added after 2 days and 4 days, to examine the number of dead larvae after 7 days, thereby calculating the insecticidal ratio of the chemical solution.
In this test, an average of the results in two Petri dishes in one section was calculated.

[3] = system: Aulacophora femoralis; assay: Test for Aulacophora femoralis (spray test); type: in vivo; conditions: effective component concentration of 500 ppm; 2nd-instar, dipped cucumber leaves; after 7 days
Description: as §1
The leaves of cucumbers were dipped in the aqueous solution diluted to a specified concentration with water. After the chemical solution was dried in air, these leaves were placed in a plastic cup, in which sterilized black soil was placed. 5 Aulacophora femoralis of the 2nd-instar were set free in the soil, to examine the number of dead insects after 7 days, thereby calculating the insecticidal ratio of the chemical solution.

[4] = system: Ctenocephalides felis, strain "Georgi"; assay: Test for cat fleas / oral uptake; type: in vivo; conditions: in Bos taurus, 48 h, read-out: kill (mortality)
Description: 20 mg of the active compound are dissolved in 1 ml dimethylsulphoxide To prepare a suitable formulation (e.g. 100 ppm), the active compound solution is diluted to the respective desired concentration with cattle blood (e.g. 1 part by weight active compound solution with 199 parts by weight cattle blood).
20 unfed adult fleas (Ctenocephalides felis, strain “Georgi”) are placed into a chamber (Ø 5 cm) whose top and bottom are closed with gauze. A metal cylinder whose underside is covered with parafilm is placed onto the chamber. The cylinder contains the blood/active compound formulation which can be taken up by the fleas through the parafilm membrane. Whereas the blood is warmed to 37° C., the temperature in the area of the flea chambers is adjusted to room temperature.
After the desired time the mortality in % is determined. Here 100% means that all fleas were killed; 0% means that no fleas were killed.

[5] = system: Lucilia cuprina larvae; assay: Test for Lucilia cuprina larvae; type: in vivo; conditions: 48 h, read-out: larval mortality
Description: 20 mg of active compound are dissolved in 1 ml of dimethyl sulphoxide. To prepare a suitable formulation (e.g. 100 ppm), the active compound solution is diluted to the respective desired concentration with water (e.g. 1 part by weight active compound solution with 199 parts by weight water).
Approximately 20 Lucilia cuprina larvae are introduced into a test tube which contains approx. 1 cm^3 horse meat and 0.5 ml of the active compound preparation to be tested. After 48 hours, the efficacy of the active compound preparation is determined as % larval mortality. 0%: no larvae were killed, 100%: all larvae were killed.

| SMILES | insecticidal ratio [2] [%] | insecticidal ratio [3] [%] | other results |
| --- | --- | --- | --- |
| FC(F)(F)C1(c2cc(Cl)cc(Cl)c2)CC(c2ccc(-n3cccc3)cc2)=NO1 (stereo not shown) | – | – | melting point: 206 to 208 °C |
| FC(F)(F)c1nnnn1-c1ccc(C2=NOC(c3cc(Cl)cc(Cl)c3)(C(F)(F)F)C2)cc1 (stereo not shown) | – | – | melting point: 147 to 151 °C |
| N#Cc1cc(C2=NOC(c3cc(C(F)(F)F)cc(C(F)(F)F)c3)(C(F)(F)F)C2)ccc1-n1cncn1 (racemic) [Compound 135] | 100 | 100 | insecticidal ratio [1]: 100% |
| N#Cc1cc(C2=NOC(c3cc(Cl)cc(Cl)c3)(C(F)(F)F)C2)ccc1-n1cc(Cl)cn1 (stereo not shown) [Compound 17] | – | – | mortality at 100 ppm [4]: > 80%; pest or weed control at 500 ppm [2]: 100%; mortality at 100 ppm [5]: > 95% |
| N#Cc1cc(C2=NOC(c3cccc(C(F)(F)F)c3)(C(F)(F)F)C2)ccc1-n1cc([N+](=O)[O-])cn1 (stereo not shown) [Compound 38] | 100 | 100 | insecticidal ratio [1]: 100% |
| N#Cc1cc(C2=NOC(c3cc(Cl)cc(Cl)c3)(C(F)(F)F)C2)ccc1-n1cncn1 (stereo not shown) [Compound 101, 5-[5-(3,5-dichlorophenyl)-5-(trifluoromethyl)-4,5-dihydroisoxazol-3-yl)-2-(1H-1,2,4-triazol-1-yl)benzonitrile] | – | 100 | insecticidal ratio [1]: 100%; pest or weed control at 500 ppm [2]: 100% |
| N#Cc1cc(C2=NOC(c3cc(Cl)cc(Cl)c3)(C(F)(F)F)C2)ccc1-n1cnnn1 (stereo not shown) [Compound 153] | 100 | 100 | insecticidal ratio [1]: 100% |
| FC(F)(F)c1cccc(C2(C(F)(F)F)CC(c3ccc(-n4cnnn4)cc3)=NO2)c1 (stereo not shown) [Compound 157] | 100 | 100 | – |
| N#Cc1cc(C2=NOC(c3cccc(C(F)(F)F)c3)(C(F)(F)F)C2)ccc1-n1cnnn1 (stereo not shown) [Compound 160] | 100 | 100 | – |
| O=[N+]([O-])c1cc(C2=NOC(c3cccc(C(F)(F)F)c3)(C(F)(F)F)C2)ccc1-n1cnnn1 (stereo not shown) [Compound 161] | 100 | 100 | – |
| N#Cc1cc(C2=NOC(c3cc(C(F)(F)F)cc(C(F)(F)F)c3)(C(F)(F)F)C2)ccc1-n1cnnn1 (stereo not shown) [Compound 165] | 100 | 100 | – |
| O=[N+]([O-])c1cc(C2=NOC(c3cc(C(F)(F)F)cc(C(F)(F)F)c3)(C(F)(F)F)C2)ccc1-n1cnnn1 (stereo not shown) [Compound 166, 1-(4-{5-[3,5-bis(trifluoromethyl)phenyl]-5-(trifluoromethyl)-4,5-dihydroisoxazol-3-yl}-2-nitrophenyl)-1H-tetrazole] | – | 100 | pest or weed control at 500 ppm [2]: 100% |
| N#Cc1cc(C2=NOC(c3cc(Cl)cc(Cl)c3)(C(F)(F)F)C2)ccc1-n1ncnn1 (stereo not shown) [Compound 171] | 100 | 100 | – |
| N#Cc1cc(C2=NOC(c3cc(Cl)cc(Cl)c3)(C(F)(F)F)C2)ccc1-n1cc(N)cn1 (stereo not shown) [Compound 181] | 100 | 100 | – |

— patent US20110086886A2, “INSECTICIDAL ISOXAZOLINES” (Bayer CropScience AG, priority 2006, published 2011)
